# Test results published in the supplement of paper PMC10307832.
# Tests used:
# Assay in all cases: relative viability (nuclei count vs DMSO), 5 days (fraction); higher = more cells survive
# [1] = test system: CAL-12T
# Outline: (§1)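 Lung cancer cell lines in 1536-well plates got either a single drug or a fixed anchor-drug dose together with five library-drug doses (not always all listed) in √10 steps, by pin tool, on the day after seeding. Nuclei were counted after 5 days, and relative viability is the treated-to-vehicle ratio of nuclei counts. Values are medians of duplicate plates.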
# [2] = test system: NCI-H1666
# Outline: as §1
# [3] = test system: NCI-H1975
# Outline: as §1
# [4] = test system: NCI-H1755
# Outline: as §1
# [5] = test system: NCI-H441
# Outline: as §1
# [6] = test system: ChaGo-K-1
# Outline: as §1
# [7] = test system: HCC-15
# Outline: as §1
# [8] = test system: COR-L 105
# Outline: as §1
# [9] = test system: NCI-H2085
# Outline: as §1
# [10] = test system: NCI-H2126
# Outline: as §1
# [11] = test system: NCI-H3122
# Outline: as §1
# [12] = test system: NCI-H322M
# Outline: as §1
# [13] = test system: HCC-78
# Outline: as §1
# [14] = test system: NCI-H1993
# Outline: as §1
# [15] = test system: EPLC-272H
# Outline: as §1
# [16] = test system: HOP-62
# Outline: as §1
# [17] = test system: LXF-289
# Outline: as §1
# [18] = test system: NCI-H1915
# Outline: as §1
# [19] = test system: UMC-11
# Outline: as §1
# [20] = test system: EMC-BAC-2
# Outline: as §1
# [21] = test system: NCI-H2023
# Outline: as §1
smiles,measurement,setting,value
O=C(O)c1ccc(-c2c[nH]c3ncc(-c4ccccc4)cc23)cc1C1CCCC1 + CC1(C)CCC(c2ccc(Cl)cc2)=C(CN2CCN(c3ccc(C(=O)NS(=O)(=O)c4ccc(N[C@H](CCN5CCOCC5)CSc5ccccc5)c(S(=O)(=O)C(F)(F)F)c4)cc3)CC2)C1 [Navitoclax] (partner 0.5 µM),relative viability,[1]; first compound 0.04 µM,1.26
same,relative viability,[1]; first compound 0.1265 µM,1.21
same,relative viability,[1]; first compound 0.4 µM,1.11
same,relative viability,[1]; first compound 1.265 µM,1.05
same,relative viability,[2]; first compound 0.04 µM,1.02
same,relative viability,[2]; first compound 0.1265 µM,1.01
same,relative viability,[2]; first compound 0.4 µM,0.849
same,relative viability,[2]; first compound 1.265 µM,0.584
same,relative viability,[3]; first compound 0.04 µM,1.13
same,relative viability,[3]; first compound 0.1265 µM,1.25
same,relative viability,[3]; first compound 0.4 µM,1.1
same,relative viability,[3]; first compound 1.265 µM,1.17
same,relative viability,[4]; first compound 0.04 µM,0.98
same,relative viability,[4]; first compound 0.1265 µM,1.05
same,relative viability,[4]; first compound 0.4 µM,1.03
same,relative viability,[4]; first compound 1.265 µM,0.927
same,relative viability,[5]; first compound 0.04 µM,0.751
same,relative viability,[5]; first compound 0.1265 µM,0.583
same,relative viability,[5]; first compound 0.4 µM,0.365
same,relative viability,[5]; first compound 1.265 µM,0.469
same,relative viability,[6]; first compound 0.04 µM,1.16
same,relative viability,[6]; first compound 0.1265 µM,1.3
same,relative viability,[6]; first compound 0.4 µM,0.888
same,relative viability,[6]; first compound 1.265 µM,1.32
same,relative viability,[7]; first compound 0.04 µM,0.697
same,relative viability,[7]; first compound 0.1265 µM,0.746
same,relative viability,[7]; first compound 0.4 µM,0.662
same,relative viability,[7]; first compound 1.265 µM,0.373
same,relative viability,[8]; first compound 0.04 µM,0.818
same,relative viability,[8]; first compound 0.1265 µM,0.95
same,relative viability,[8]; first compound 0.4 µM,0.733
same,relative viability,[8]; first compound 1.265 µM,0.717
same,relative viability,[9]; first compound 0.04 µM,1.06
same,relative viability,[9]; first compound 0.1265 µM,1.1
same,relative viability,[9]; first compound 0.4 µM,1.04
same,relative viability,[9]; first compound 1.265 µM,0.72
same,relative viability,[10]; first compound 0.04 µM,0.892
same,relative viability,[10]; first compound 0.1265 µM,0.875
same,relative viability,[10]; first compound 0.4 µM,0.745
same,relative viability,[10]; first compound 1.265 µM,0.685
same,relative viability,[11]; first compound 0.04 µM,1.02
same,relative viability,[11]; first compound 0.1265 µM,1
same,relative viability,[11]; first compound 0.4 µM,1.03
same,relative viability,[11]; first compound 1.265 µM,0.976
same,relative viability,[12]; first compound 0.04 µM,1.19
same,relative viability,[12]; first compound 0.1265 µM,1.37
same,relative viability,[12]; first compound 0.4 µM,1.34
same,relative viability,[12]; first compound 1.265 µM,1.03
same,relative viability,[13]; first compound 0.04 µM,0.849
same,relative viability,[13]; first compound 0.1265 µM,0.904
same,relative viability,[13]; first compound 0.4 µM,0.802
same,relative viability,[13]; first compound 1.265 µM,0.542
same,relative viability,[14]; first compound 0.04 µM,0.955
same,relative viability,[14]; first compound 0.4 µM,0.986
same,relative viability,[14]; first compound 1.265 µM,0.795
same,relative viability,[15]; first compound 0.04 µM,1.01
same,relative viability,[15]; first compound 0.1265 µM,1.16
same,relative viability,[15]; first compound 0.4 µM,1.06
same,relative viability,[15]; first compound 1.265 µM,0.811
same,relative viability,[16]; first compound 0.04 µM,1.05
same,relative viability,[16]; first compound 0.1265 µM,1.13
same,relative viability,[16]; first compound 0.4 µM,1.05
same,relative viability,[16]; first compound 1.265 µM,0.76
same,relative viability,[17]; first compound 0.04 µM,0.936
same,relative viability,[17]; first compound 0.1265 µM,0.883
same,relative viability,[17]; first compound 0.4 µM,0.658
same,relative viability,[17]; first compound 1.265 µM,0.48
same,relative viability,[18]; first compound 0.04 µM,0.769
same,relative viability,[18]; first compound 0.1265 µM,0.77
same,relative viability,[18]; first compound 0.4 µM,0.609
same,relative viability,[18]; first compound 1.265 µM,0.502
same,relative viability,[19]; first compound 0.04 µM,0.318
same,relative viability,[19]; first compound 0.1265 µM,0.299
same,relative viability,[19]; first compound 0.4 µM,0.328
same,relative viability,[19]; first compound 1.265 µM,0.222
same,relative viability,[20]; first compound 0.04 µM,1.18
same,relative viability,[20]; first compound 0.1265 µM,1.23
same,relative viability,[20]; first compound 0.4 µM,1.16
same,relative viability,[20]; first compound 1.265 µM,1.22
same,relative viability,[21]; first compound 0.04 µM,1.03
same,relative viability,[21]; first compound 0.1265 µM,1.11
same,relative viability,[21]; first compound 0.4 µM,0.987
same,relative viability,[21]; first compound 1.265 µM,0.904
